How the values were obtained:
HT-29 cell = experiment: In vitro suppression of HT-29 cell proliferation; assay type: cell-based; details: Homo sapiens, details not enclosed, read-out: IC50 for suppressing HT-29 cell proliferation
From the text: (§1) However, it should be understood that the 5-FU prodrug exerts its efficacy after it is digested and hydrolyzed at the target sites in the body. Because it is a prodrug, it has no direct effect on in vitro colorectal cancer cell lines.

normal mice = experiment: Survival of normal mice after 7-day treatment (toxicological effects); assay type: in vivo; details: for Survival Rate (%) after 7-day Treatment / Survivors/total after 7-day Treatment: normal mice, n = 10
Experimental: Normal mice are administered with 7.5, 22.5, or 67.5 mg/kg/d of 5-FU and the 5-FU prodrug (as equivalent 5-FU dose). […]

[1] = Distribution of 5-FU in different parts of the GI tract after oral feeding to mice; assay type: in vivo; parameters: key to 5-FU (μg/g) Stomach / 5-FU (μg/g) Proximal Small Intestine / 5-FU (μg/g) Distal Small Intestine / 5-FU (μg/g) Ileum and Cecum / 5-FU (μg/g) Colon and Rectum: —: dashed lines represent undetectable levels of 5-FU; details: for 5-FU (μg/g) Colon and Rectum / 5-FU (μg/g) Distal Small Intestine / 5-FU (μg/g) Ileum and Cecum / 5-FU (μg/g) Proximal Small Intestine / 5-FU (μg/g) Stomach: oral 22.5 mg/kg, n = 6, x ± s
From the text: Note that the dashed lines represent undetectable levels of 5-FU.

COLO-205 cell = experiment: In vitro suppression of COLO-205 cell proliferation; assay type: cell-based; details: Homo sapiens, details not enclosed, read-out: IC50 for suppressing COLO-205 cell proliferation
From the text: as §1

[2] = test system: mice with colorectal cancer induced by DMH-DSS; experiment: Therapeutic effects on mice with colorectal cancer induced by DMH-DSS; assay type: in vivo; details: 22.5 mg/kg/d equivalent 5-FU, two 7-day treatment periods with 7 days rest (21 days)
From the text: The doses delivered are equivalent with 1 time per day for 7 days as one treatment period, and then another period of treatment after 7 days of rest (i.e., a total of 21 days, two treatment periods with one week of rest in between).

[3] = 7.5 mg/kg/d (equivalent 5-FU dose)
[4] = 22.5 mg/kg/d (equivalent 5-FU dose)
[5] = 67.5 mg/kg/d (equivalent 5-FU dose)

O=c1[nH]cc(F)c(=O)[nH]1 [Example 5-FU, 5-fluorouracil]
IC50 (HT-29 cell): 13 µM
Survival Rate (%) after 7-day Treatment (normal mice; [3]): 100%
Survivors/total after 7-day Treatment (normal mice; [3]): (10/10)
Survival Rate (%) after 7-day Treatment (normal mice; [4]): 70%
Survivors/total after 7-day Treatment (normal mice; [4]): (7/10)
Survival Rate (%) after 7-day Treatment (normal mice; [5]): 0%
Survivors/total after 7-day Treatment (normal mice; [5]): (0/10)
toxic effects in the first dose (normal mice; normal mice, 7.5, 22.5, or 67.5 mg/kg/d, first dose): no obvious toxic effects
main site of distribution / detection in the GI tract ([1]; fed orally): mucosa of stomach and proximal part of the small intestine
5-FU (μg/g) Colon and Rectum ([1]; 1 hr): —
5-FU (μg/g) Distal Small Intestine ([1]; 1 hr): 0.42 ± 0.21 µg/g
5-FU (μg/g) Ileum and Cecum ([1]; 1 hr): —
5-FU (μg/g) Proximal Small Intestine ([1]; 1 hr): 1.75 ± 0.24 µg/g
5-FU (μg/g) Stomach ([1]; 1 hr): 3.04 ± 0.49 µg/g
5-FU (μg/g) Colon and Rectum ([1]; 2.5 hr): 0.25 ± 0.12 µg/g
5-FU (μg/g) Distal Small Intestine ([1]; 2.5 hr): 0.43 ± 0.24 µg/g
5-FU (μg/g) Ileum and Cecum ([1]; 2.5 hr): 0.37 ± 0.12 µg/g
5-FU (μg/g) Proximal Small Intestine ([1]; 2.5 hr): 0.64 ± 0.42 µg/g
5-FU (μg/g) Stomach ([1]; 2.5 hr): 1.97 ± 0.31 µg/g
5-FU (μg/g) Colon and Rectum ([1]; 3.5 hr): 0.41 ± 0.24 µg/g
5-FU (μg/g) Distal Small Intestine ([1]; 3.5 hr): 0.62 ± 0.12 µg/g
5-FU (μg/g) Ileum and Cecum ([1]; 3.5 hr): 0.42 ± 0.21 µg/g
5-FU (μg/g) Proximal Small Intestine ([1]; 3.5 hr): 0.53 ± 0.32 µg/g
5-FU (μg/g) Stomach ([1]; 3.5 hr): 1.12 ± 0.46 µg/g
5-FU (μg/g) Colon and Rectum ([1]; 4.5 hr): 0.56 ± 0.06 µg/g
5-FU (μg/g) Distal Small Intestine ([1]; 4.5 hr): 0.35 ± 0.21 µg/g
5-FU (μg/g) Ileum and Cecum ([1]; 4.5 hr): 0.37 ± 0.12 µg/g
5-FU (μg/g) Proximal Small Intestine ([1]; 4.5 hr): 0.42 ± 0.91 µg/g
5-FU (μg/g) Stomach ([1]; 4.5 hr): 0.97 ± 0.23 µg/g
5-FU (μg/g) Colon and Rectum ([1]; 6 hr): 0.17 ± 0.04 µg/g
5-FU (μg/g) Distal Small Intestine ([1]; 6 hr): 0.31 ± 0.09 µg/g
5-FU (μg/g) Ileum and Cecum ([1]; 6 hr): 0.21 ± 0.11 µg/g
5-FU (μg/g) Proximal Small Intestine ([1]; 6 hr): 0.37 ± 0.05 µg/g
5-FU (μg/g) Stomach ([1]; 6 hr): 0.63 ± 0.31 µg/g
5-FU (μg/g) Colon and Rectum ([1]; 9 hr): 0.08 ± 0.05 µg/g
5-FU (μg/g) Distal Small Intestine ([1]; 9 hr): 0.17 ± 0.06 µg/g
5-FU (μg/g) Ileum and Cecum ([1]; 9 hr): 0.03 ± 0.01 µg/g
5-FU (μg/g) Proximal Small Intestine ([1]; 9 hr): 0.17 ± 0.04 µg/g
5-FU (μg/g) Stomach ([1]; 9 hr): 0.33 ± 0.18 µg/g
5-FU (μg/g) Colon and Rectum ([1]; 12 hr): 0.05 ± 0.02 µg/g
5-FU (μg/g) Distal Small Intestine ([1]; 12 hr): 0.07 ± 0.04 µg/g
5-FU (μg/g) Ileum and Cecum ([1]; 12 hr): 0.04 ± 0.02 µg/g
5-FU (μg/g) Proximal Small Intestine ([1]; 12 hr): 0.03 ± 0.01 µg/g
5-FU (μg/g) Stomach ([1]; 12 hr): 0.06 ± 0.03 µg/g
5-FU (μg/g) Colon and Rectum ([1]; 15 hr): —
5-FU (μg/g) Distal Small Intestine ([1]; 15 hr): —
5-FU (μg/g) Ileum and Cecum ([1]; 15 hr): —
5-FU (μg/g) Proximal Small Intestine ([1]; 15 hr): —
5-FU (μg/g) Stomach ([1]; 15 hr): —
IC50 (COLO-205 cell): 3.2 µM
Survival at the End of the Study ([2]; n = 10): 5/10
Survival Rate ([2]; n = 10, listed as Generic 5-Fluorouracil (5-FU)): 50%
Survival Rate ([2]; n = 10, listed as generic 5-FU): 50%
Tumor Weight Index ([2]; x ± s): 447 ± 113.5 mg/g
Tumor Weight as Compared to the Saline Control ([2]; listed as Generic 5-Fluorouracil (5-FU)): 65%
Tumor Weight as Compared to the Saline Control ([2]; listed as generic 5-FU): 65%
